US12714106B2 (Bayer Aktiengesellschaft, priority 2020, dated 2026)

Experiments:
Assay type in all cases: in vivo
[1] = test system: grass and broadleaf weeds; experiment: Comparative testing of crystalline (I), (Ia), (Ib), summary of tables 3 to 6; conditions: (I) vs (Ia); (Ia) vs (Ib); see tables 3 to 6
Protocol: (§1) Seeds of grass and broadleaf weeds were sown in pots (diameter: 7 cm) filled with a sandy loam soil. Following germination the plants were grown under optimal conditions up to a growth stage of BBCH 11 to 14 depending on species.
(§2) The applications were performed by post emergence treatments on the planted pots using a spray volume of 300 L water per hectare. The herbicides were applied alone and in combination as described.
(§3) The trial was conducted in the greenhouse ensuring optimal growing conditions.
(§4) The herbicidal effects were assessed 21 days following application by visual ratings comparing treated and untreated plants (0%=no effect to 100%=complete die-off).
(§5) The compounds of the formula (Ia), (Ib) and (I) were formulated as WP (wettable powder) formulation.
(§6) The synergistic herbicidal activity was calculated using Colby's formula (cf. S. R. Colby; Weeds 15 (1967), 20-22): […]

[2] = test system: MATIN (Matricaria inodora); experiment: Post-emergence greenhouse herbicide test, visual rating; conditions: post-emergence, 21 days after application
Protocol: as §1, §2, §3, §4, §5
(§7) • BBCH=the BBCH code provides information about the morphological development stage of a plant. Officially, the abbreviation denotes the Biologische Bundesanstalt, Bundessortenamt and Chemische Industrie [Federal Biological Institute for Agriculture and Forestry, Federal Office for Crop Plant Varieties and Chemical Industry]. The range of BBCH 00-10 denotes the germination stages of the seeds until surface penetration. The range of BBCH 11-25 denotes the leaf development stages until stocking (corresponding to the number of tillers or side-shoots). In the Trials, the Following Biotypes of Broad-Leaved Weeds and Weed Grasses were Used: • ALOMY—sensitive (Alopecurus myosuroides) sensitive to customary herbicidally active compounds. • ALOMY_R (resistant) (Alopecurus myosuroides) resistant to herbicidally active compounds of the HRAC groups A and B; population mixture of field origin having increased metabolic resistance (IMR) and some target site resistance (TSR). • LOLRI—sensitive (Lolium rigidum) sensitive to customary herbicidally active compounds. • LOLRI_R (resistant) (Lolium rigidum) resistant to herbicidally active compounds of the HRAC groups A and B; population mixture of field origin having increased metabolic resistance (IMR) and some target site resistance (TSR). • AMAPA_R (resistant) (Amaranthus palmeri) resistant to herbicidally active compounds of the HRAC groups A and B; population mixture of field origin having increased metabolic resistance (IMR) and some target site resistance (TSR). • CHRVI (Chloris virgate) feather finger grass • KCHSC (Kochia scoparia) Mexican burning bush • MATIN (Matricaria inodora) false chamomile • POLCO (Polygonum convolvulus) black knotweed • ABUTH (Abutilon theophrasti) china jute • AMAPA (Amaranthus palmeri) palmer amaranth • BIDPI (Bidens pilosa) common blackjack • CHEAL (Chenopodium album) common lambsquarters • EPHHL (Euphorbia heterophylla) wild spurge • XANST (Xanthium strumarium) large cocklebur • EMEAU (Emex australis)—Cathead • GALAP (Gallium aparine)—Cleaver
as §6

[3] = test system: ABUTH (Abutilon theophrasti); experiment: as above; conditions: post-emergence, 21 days after application
Protocol: as §1, §2, §3, §4, §5, §7, §6

[4] = test system: AMAPA-R (resistant) (Amaranthus palmeri); experiment: as above; conditions: 25 g/ha single isomer; post-emergence; 21 days after application
Protocol: as §1, §2, §3, §4, §5, §7, §6

[5] = test system: LOLRI_R (resistant) (Lolium rigidum); experiment: as above; conditions: post-emergence, 21 days after application
Protocol: as §1, §2, §3, §4, §5, §7, §6

[6] = test system: GALAP (Gallium aparine); experiment: as above; conditions: 50 g/ha; post-emergence; 21 days after application
Protocol: as §1, §2, §3, §4, §5, §7, §6

[7] = test system: CHEAL (Chenopodium album); experiment: as above; conditions: post-emergence, 21 days after application
Protocol: as §1, §2, §3, §4, §5, §7, §6

[8] = test system: EMEAU (Emex australis); experiment: as above; conditions: 50 g/ha; post-emergence; 21 days after application
Protocol: as §1, §2, §3, §4, §5, §7, §6

[9] = test system: XANST (Xanthium strumarium); experiment: as above; conditions: post-emergence, 21 days after application
Protocol: as §1, §2, §3, §4, §5, §7, §6

[10] = test system: CHRVI (Chloris virgate); experiment: as above; conditions: 12.5 g/ha; post-emergence; 21 days after application
Protocol: as §1, §2, §3, §4, §5, §7, §6

[11] = test system: LOLRI - sensitive (Lolium rigidum); experiment: as above; conditions: post-emergence, 21 days after application
Protocol: as §1, §2, §3, §4, §5, §7, §6

[12] = test system: EPHHL (Euphorbia heterophylla); experiment: as above; conditions: post-emergence, 21 days after application
Protocol: as §1, §2, §3, §4, §5, §7, §6

[13] = test system: POLCO (Polygonum convolvulus); experiment: as above; conditions: 12.5 g/ha; post-emergence; 21 days after application
Protocol: as §1, §2, §3, §4, §5, §7, §6

[14] = test system: BID PI (Bidens pilosa); experiment: as above; conditions: 25 g/ha single isomer; post-emergence; 21 days after application
Protocol: as §1, §2, §3, §4, §5, §7, §6

[15] = test system: KCHSC (Kochia scoparia); experiment: as above; conditions: 12.5 g/ha; post-emergence; 21 days after application
Protocol: as §1, §2, §3, §4, §5, §7, §6

Compound	MATIN Observed ([2]; 12.5 g/ha) [%]	MATIN Observed ([2]; 25 g/ha) [%]	MATIN Observed ([2]; 50 g/ha) [%]	ABUTH Observed ([3]; 25 g/ha single isomer) [%]	ABUTH Observed ([3]; 50 g/ha single isomer) [%]	AMAPA-R Observed [4] [%]	LOLRI_R Observed ([5]; 6.25 g/ha) [%]	LOLRI_R Observed ([5]; 12.5 g/ha) [%]	LOLRI_R Observed ([5]; 25 g/ha) [%]	GALAP Observed [6] [%]	CHEAL Observed ([7]; 25 g/ha single isomer) [%]	EMEAU Observed [8] [%]	XANST Observed ([9]; 25 g/ha single isomer) [%]	XANST Observed ([9]; 50 g/ha single isomer) [%]	XANST Observed ([9]; 100 g/ha single isomer) [%]	CHRVI Observed [10] [%]	LOLRI Observed ([11]; 6.25 g/ha) [%]	LOLRI Observed ([11]; 12.5 g/ha) [%]	EPHHL Observed ([12]; 25 g/ha single isomer) [%]	EPHHL Observed ([12]; 50 g/ha single isomer) [%]	further results
C=C[C@]1(C(=O)N[C@H]2CO[C@@H](C(=O)OC)C2)CC(c2cc(F)cc(F)c2)=NO1 [(Ia), methyl(2R,4R)-4-[[(5S)-3-(3,5-difluorophenyl)-5-vinyl-4H-isoxazole-5-carbonyl]amino]-tetrahydrofuran-2-carboxylate]	0	0	0	45	60	35	15	20	30	75	70	80	0	20	20	35	20	90	30	35	herbicidal activity compared with the other crystalline forms [1]: superior in activity; POLCO Observed [13]: 85%; BID PI Observed [14]: 30%; KCHSC Observed [15]: 70%
C=C[C@]1(C(=O)N[C@@H]2CO[C@H](C(=O)OC)C2)CC(c2cc(F)cc(F)c2)=NO1 [(Ib), methyl(2S,4S)-4-[[(5S)-3-(3,5-difluorophenyl)-5-vinyl-4H-isoxazole-5-carbonyl]amino]-tetrahydrofuran-2-carboxylate]	0	0	0	10	20	25	0	0	0	35	20	45	0	10	20	20	0	0	35	35	CHEAL Observed ([7]; 50 g/ha single isomer): 60%; POLCO Observed [13]: 40%; BID PI Observed [14]: 10%; KCHSC Observed [15]: 40%
